Reference: patent publication US8247211B2, “Glycopeptide antibiotics” (American Cyanamid Company, priority 2001, dated 2012)
In brackets after ≈: the same amount, converted by molar mass.

Experiments:
Experiment in all cases: In vitro antibacterial evaluation: minimum inhibitory concentration (MIC), broth dilution method
Format in all cases: cell-based
[1] = tested on: Enterococcus sp.
In short: (§1)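 Using Muller-Hinton II […] and an inoculum of 5×10^5 CFU/mL, antibiotic dilutions from 64 down to 0.06 μg/mL were tested following NCCLS M7-A2. The MIC is the lowest concentration inhibiting growth, including in methicillin-, penicillin- or vancomycin-resistant clinical isolates.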

[2] = tested on: Escherichia coli; settings: strain ATCC 25922
In short: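 First, organisms are seeded at 5×10^5 CFU/mL into Muller-Hinton II […]. Next, antibiotic is applied across 64-0.06 μg/mL by broth dilution (NCCLS M7-A2). Finally, the lowest inhibitory concentration is recorded as MIC.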

[3] = tested on: Staphylococcus sp.; settings: for MIC Staphylococcus aureus-SMITH (GC 4543): strain GC 4543; for MIC Staphylococcus haemolyticus (GC 4546): strain GC 4546; for MIC Coagulase Negative Staphylococcus (GC 4547): strain GC 4547; for MIC Coagulase Negative Staphylococcus (GC 4548): strain GC 4548; for MIC Coagulase Negative Staphylococcus (GC 4549): strain GC 4549; for MIC Coagulase Negative Staphylococcus (GC 4551): strain GC 4551; for MIC Coagulase Negative Staphylococcus (ID-3941): strain ID-3941
In short: as §1

[4] = tested on: Streptococcus sp.
In short: as §1

[5] = broth dilution, 18 hours at 35° C.

With `CCCC(CCC)C(=O)OCC1OC(Oc2ccc(CC3NC(=O)C(C(C)c4ccccc4)NC(=O)CNC(=O)C(CO)NC(=O)C(C(O)C4CNC(=N)N4C4OC(CO)C(O)C(O)C4O)NC(=O)C(C(O)C4CNC(=N)N4)NC3=O)cc2)C(O)C(O)C1OC1OC(CO)C(O)C(O)C1O` (stereo not drawn) [Example 99b, Cyclo[glycyl-β-methylphenylalanyl-O-(4-O-hexopyranosyl-6-O-(2-propylpentanoyl)hexopyranosyl]tyrosyl-3-(2-iminoimidazolidin-4-yl)seryl-3-(3-hexopyranosyl-2-iminoimidazolidin-4-yl)serylseryl]] the “MIC Enterococcus faecalis (ATCC 29212)” value ([1]; strain ATCC 29212) was 16 µg/mL (≈ 11.3 µM), the “MIC Enterococcus faecalis (GC 2242)” value ([1]; strain GC 2242) was 16 µg/mL (≈ 11.3 µM) and the “MIC Enterococcus faecium (GC 2243)” value ([1]; strain GC 2243) was 16 µg/mL (≈ 11.3 µM). The “MIC Enterococcus faecalis (GC 4552)” value ([1]; strain GC 4552) was 32 µg/mL (≈ 22.5 µM), the “MIC Enterococcus faecalis (GC 4553)” value ([1]; strain GC 4553) was 16 µg/mL (≈ 11.3 µM) and the “MIC Enterococcus faecalis (GC 4554)” value ([1]; strain GC 4554) was 32 µg/mL (≈ 22.5 µM). For the same compound, the “MIC Enterococcus faecium (GC 4556)” value ([1]; strain GC 4556) was 16 µg/mL (≈ 11.3 µM), the “MIC Enterococcus faecium (GC 4557)” value ([1]; strain GC 4557) was 4 µg/mL (≈ 2.81 µM) and the “MIC Enterococcus avium (GC 4558)” value ([1]; strain GC 4558) was 16 µg/mL (≈ 11.3 µM). For the same compound, the “MIC Escherichia coli (ATCC 25922)” value [2] was over 64 µg/mL, the “MIC Staphylococcus aureus (ATCC 29213)” value [3, 5] was 4 µg/mL (≈ 2.81 µM) and the “MIC Staphylococcus aureus (GC 1131)” value [3, 5] was 4 µg/mL (≈ 2.81 µM). For the same compound, the “MIC Staphylococcus aureus (GC 4541)” value [3, 5] was 4 µg/mL (≈ 2.81 µM), the “MIC Staphylococcus aureus (GC 4542)” value [3, 5] was 4 µg/mL (≈ 2.81 µM) and the “MIC Staphylococcus aureus (GC 4544)” value [3, 5] was 4 µg/mL (≈ 2.81 µM). The “MIC Staphylococcus aureus (GC 4545)” value [3, 5] was 4 µg/mL (≈ 2.81 µM), the “MIC Staphylococcus aureus-SMITH (GC 4543)” value ([3]; 18 hours at 35° C.) was 4 µg/mL (≈ 2.81 µM) and the “MIC Staphylococcus aureus-SMITH (GC 4543)” value [3, 5] was 4 µg/mL (≈ 2.81 µM). The “MIC Staphylococcus haemolyticus (GC 4546)” value [3] was 4 µg/mL (≈ 2.81 µM), the “MIC Staphylococcus haemolyticus (GC 4546)” value [3, 5] was 4 µg/mL (≈ 2.81 µM) and the “MIC Coagulase Negative Staphylococcus (GC 4547)” value [3] was 4 µg/mL (≈ 2.81 µM). For the same compound, the “MIC Coagulase Negative Staphylococcus (GC 4547)” value [3, 5] was 4 µg/mL (≈ 2.81 µM), the “MIC Coagulase Negative Staphylococcus (GC 4548)” value [3] was 4 µg/mL (≈ 2.81 µM) and the “MIC Coagulase Negative Staphylococcus (GC 4548)” value [3, 5] was 4 µg/mL (≈ 2.81 µM). The “MIC Coagulase Negative Staphylococcus (GC 4549)” value [3] was 2 µg/mL (≈ 1.41 µM), the “MIC Coagulase Negative Staphylococcus (GC 4549)” value [3, 5] was 2 µg/mL (≈ 1.41 µM) and the “MIC Coagulase Negative Staphylococcus (GC 4551)” value [3] was 8 µg/mL (≈ 5.63 µM). For the same compound, the “MIC Coagulase Negative Staphylococcus (GC 4551)” value [3, 5] was 8 µg/mL (≈ 5.63 µM), the “MIC Coagulase Negative Staphylococcus (ID-3941)” value [3] was 2 µg/mL (≈ 1.41 µM) and the “MIC Coagulase Negative Staphylococcus (ID-3941)” value [3, 5] was 2 µg/mL (≈ 1.41 µM). The “MIC Streptococcus agalactiae (GC 4564)” value ([4]; strain GC 4564) was 2 µg/mL (≈ 1.41 µM), the “MIC Streptococcus pneumoniae (GC 4565)” value ([4]; strain GC 4565) was under 0.5 µg/mL and the “MIC Streptococcus pyogenes (ID-3187)” value ([4]; strain ID-3187) was 1 µg/mL (≈ 0.703 µM).
